Laboratory results reported in paper PMC9814779, “A triple farnesoid X receptor and peroxisome proliferator-activated receptor α/δ activator reverses hepatic fibrosis in diet-induced NASH in mice” (Communications Chemistry, 2020).

System: HEK293T and U2OS cells
Test: Multiplex high-content live-cell toxicity assay
Format: cell-based
Details: seven concentrations between 100 nM and 100 µM; 2, 12 and 24 h
Experimental: Before proof-of-concept in vivo evaluation, we profiled stability and cytotoxicity of the triple modulator 41 in vitro. […] To determine cytotoxicity, we employed a multiplex high-content life-cell imaging screen[24] on HEK293T and U2OS cells. For this, the cells were treated with fluorescent probes to detect Annexin V as apoptosis marker (Annexin V Alexa488), dead cells (Yo-Pro3), and DNA/nucleus (Hoechst33342). Cells were then incubated with 41, OCA, or elafibranor at seven concentrations between 100 nM and 100 µM, and cell health was determined by fluorescence imaging after 2, 12, and 24 h (Fig. 6g–i and Supplementary Fig. 5).
Supplementary Methods for in Vitro Characterization
Cytotoxicity was assessed in a high content screen on two different cell lines, HEK293T (ATCC® CRL-1573™) and U2OS (ATCC®HTB-96™), essentially as described previously6. In brief, cells were cultured in DMEM plus L-Glutamine (high glucose) supplemented with 10 % FBS (Gibco) and Penicillin/Streptomycin (Gibco). […]
After 2 h, 12 h and 24 h, cellular shape and fluorescence was analyzed on an automated, high-content confocal microscope (CQ1, Yokogawa). […]
50 ms, 40%; bright field, 300ms, 100% transmission, one centered field per well, 7 z stacks per well with 55 µm spacing. Images were analyzed with the Pathfinder software (Yokogawa). Cells were detected and gated as previously described6. […]
The solubilized test compound (5 μL, final concentration 10 μM in phosphate buffer (0.1 M, pH 7.4)) was preincubated at 37 °C in 432 μL of phosphate buffer (0.1 M, pH 7.4) together with a 50 μL NADPH regenerating system (30 mM glucose-6-phosphate, 4 U/mL glucose-6-phosphate dehydrogenase, 10 mM NADP, 30 mM MgCl2). […] The supernatants were analyzed and test compound was quantified by HPLC: mobile phase: MeOH 83%/H2O 17%/formic acid 0.1%; flow-rate: 1 mL/min; stationary phase: MultoHigh Phenyl phase, 5 μm, 250×4, precolumn, phenyl, 5 μm, 20×4; detection wavelength: 330 and 254 nm; injection volume: 50 μL. […]

SMILES | cytotoxicity (cell health, apoptosis, necrosis, lysis)
CC[C@H]1[C@@H](O)[C@@H]2[C@H](CC[C@]3(C)[C@@H]([C@H](C)CCC(=O)O)CC[C@@H]23)[C@@]2(C)CC[C@@H](O)C[C@@H]12 [OCA, 6α-ethylchenodeoxycholic acid, reference compound] | non-toxic up to 100 µM concentration over 24 h
CC(C)(C)c1ccc(C(=O)Nc2cccc(CCC(=O)O)c2)c(NC(=O)c2ccc(-c3ccco3)cc2)c1 [compound 41, 3-(3-[4-{tert-Butyl}-2-{4-(2-furyl)}benzamido]phenyl)propanoic acid] | no notable toxic effects up to high 100 µM concentration
